Laboratory results reported in ChEMBL document CHEMBL1148165, “A novel amino acid glycoside and three amino acids from Allium sativum” (J Nat Prod, 1993).
Active and inactive are the calls of the source. The calls are words filed in the database; no cut-off is given here.

Legend:
[1] = system: Escherichia coli; assay: Antimicrobial activity against Escherichia coli ATCC 25922 at 25 ug; format: functional, organism-based
[2] = system: Micrococcus luteus; assay: Antimicrobial activity against Micrococcus luteus ATCC 9341 at 25 ug; format: functional, organism-based
[3] = system: Penicillium oxalicum; assay: Antimicrobial activity against Penicillium oxalicum CBS 219.30 at 25 ug; format: functional, organism-based
[4] = system: Bacillus subtilis; assay: Antimicrobial activity against Bacillus subtilis ATCC 6633 at 25 ug; format: functional, organism-based
[5] = system: Platelet; assay: Inhibition of ADP-induced platelet aggregation in human platelet-rich plasma at 1 mM by turbidimetric method; format: functional; set-up: Activity: scale not given: the % may be the effect or the level left
[6] = system: Platelet; assay: Inhibition of epinephrine-induced platelet aggregation in human platelet-rich plasma at 1 mM by turbidimetric method; format: functional; set-up: scale not given: the % may be the effect or the level left
[7] = system: Platelet; assay: Inhibition of collagen-induced platelet aggregation in human platelet-rich plasma assessed as increase in lag time at 1 mM by turbidimetric method; format: functional; set-up: scale not given: the % may be the effect or the level left
[8] = system: Platelet; assay: Inhibition of collagen-induced platelet aggregation in human platelet-rich plasma at 1 mM by turbidimetric method; format: functional; set-up: Activity: scale not given: the % may be the effect or the level left

| IC50 ([5]; Homo sapiens, Platelet, Plasma) [µM] | IC50 ([8]; Homo sapiens, Platelet, Plasma) [µM] | SMILES | Activity [1] | Activity [2] | Activity [3] | Activity [4] | Activity [5] [%] | Activity [6] [%] | Activity [7] [%] | Activity [8] [%] |
| --- | --- | --- | --- | --- | --- | --- | --- | --- | --- | --- |
| – | – | C[S+]([O-])C[C@H](N)C(=O)O (some centres not stated) | inactive | inactive | inactive | inactive | – | – | – | – |
| – | – | C/C=C/[S+]([O-])C[C@H](N)C(=O)O (some centres not stated) | inactive | inactive | inactive | inactive | – | – | – | – |
| – | – | C=CC[S+]([O-])C[C@H](NC[C@@]1(O)OC[C@@H](O)[C@@H](O)[C@@H]1O)C(=O)O (some centres not stated) | inactive | inactive | inactive | inactive | 39.2 | 40.2 | 50 | 82 |
| 60 | 60 | C=CC[S+]([O-])C[C@H](N)C(=O)O (some centres not stated) [ALLIIN] | inactive | inactive | inactive | inactive | – | – | – | – |
